Conditions: human, 5 min, 25 μM, pH 7.4
Method: Human liver microsomes (HLM) were purchased from IVT (In Vitro Technologies), lot number SSP, article number X008070.
Enzymatic reaction was carried out in 100 mM KH2PO4 buffer solution (pH 7.4), the concentration of the test compounds was 25 M, the concentration of human liver microsomes was 2 mg/ml, and NADPH concentration was 2 mM. The reaction was initiated by NADPH finally added, and after reaction for 5 min in a constant-temperature shaking water bath kettle, 1.5 times of volume of methanol containing internal standard (PMPA) was immediately added to terminate the reaction.
(§1) Centrifugation was carried out for 20 minutes at a maximum speed of 13,600 rpm using an Eppendorf tabletop centrifuge. Supernatant was taken, and after being blow-dried by a nitrogen blower, the supernatant was re-dissolved into a mobile phase A (0.1% formic acid v/v aqueous solution).
(§2) Analytical column: Waters, Acquity UPLC HSS T3 column
Column temperature: 40° C.
(§3) Ion source: electrospray ionization source
Ion mode: positive ion mode
Capillary voltage: 3.0 kV
Desolventizing airflow speed: 100 L/h

| SMILES | Conversion rate to dFdCMP relative to that of PA4001 [times] | Conversion rate to dFdCMP relative to that of PA4003 |
| --- | --- | --- |
| Nc1ccn([C@@H]2O[C@H](COP3(=O)OCC[C@H](c4cc(F)cc(Cl)c4)O3)[C@@H](O)C2(F)F)c(=O)n1 (stereo partly drawn) [PA4002] | 1.0 | about 7.3 times |
| Nc1ccn([C@@H]2O[C@H](COP3(=O)OCC[C@H](c4cc(Cl)ccc4F)O3)[C@@H](O)C2(F)F)c(=O)n1 (stereo partly drawn) [PA4004] | 1.3 | ~9.5 times |

Conditions: human, 5 min, 25 μM, pH 7.4
Remark: another data set of the same source
Method: Human liver microsomes (HLM) were purchased from IVT (In Vitro Technologies), article number X008070, lot number IQF.
Enzymatic reaction was carried out in 100 mM KH2PO4 buffer solution (pH 7.4), the concentration of the test compounds was 25 μM, the concentration of human liver microsomes was 2 mg/ml, and NADPH concentration was 2 mM. The reaction was initiated by NADPH finally added, and after reaction for 5 min in a constant-temperature shaking water bath kettle, 1.5 times of volume of methanol containing internal standard (PMPA) was immediately added to terminate the reaction.
as §1, §2
Column temperature: 40° C.
as §3
Ion mode: positive ion mode
Capillary voltage: 3.0 kV
Desolventizing airflow speed: 100 L/h

| SMILES | Activation Rate (rate of releasing monophosphate product dFdCMP) [pmol/min/mg HLM] | Conversion rate to dFdCMP relative to that of PA4004 |
| --- | --- | --- |
| Nc1ccn([C@@H]2O[C@H](COP3(=O)OCC[C@H](c4cc(Cl)ccc4F)O3)[C@@H](O)C2(F)F)c(=O)n1 (stereo partly drawn) [PA4004] | 10.98 ± 1.23 | – |
| Nc1ccn([C@@H]2O[C@H](COP3(=O)OCC[C@H](c4cc(Cl)cc(Cl)c4)O3)[C@@H](O)C2(F)F)c(=O)n1 (stereo partly drawn) [PA4006] | 6.92 ± 0.01 | – |
| Nc1ccn([C@@H]2O[C@H](COP3(=O)OCC[C@H](c4ccc(F)c(Cl)c4)O3)[C@@H](O)C2(F)F)c(=O)n1 (stereo partly drawn) [PA4008] | 5.45 ± 0.12 | – |
| Nc1ccn([C@@H]2O[C@H](COP3(=O)OCC[C@H](c4ccc(Cl)c(F)c4)O3)[C@@H](O)C2(F)F)c(=O)n1 (stereo partly drawn) [PA4009] | 10.45 ± 0.85 | – |
| Nc1ccn([C@@H]2O[C@H](COP3(=O)OCC[C@H](c4cccc(Cl)c4F)O3)[C@@H](O)C2(F)F)c(=O)n1 (stereo partly drawn) [PA4010] | 9.56 ± 0.07 | – |
| Nc1ccn([C@@H]2O[C@H](COP3(=O)OCC[C@H](c4cc(F)ccc4Cl)O3)[C@@H](O)C2(F)F)c(=O)n1 (stereo partly drawn) [PA4011] | 35.28 ± 0.81 | ~3.2 times |
| Nc1ccn([C@@H]2O[C@H](COP3(=O)OCC[C@H](c4cc(Cl)ccc4Cl)O3)[C@@H](O)C2(F)F)c(=O)n1 (stereo partly drawn) [PA4012] | 38.95 ± 1.17 | about 3.5 times |
| Nc1ccn([C@@H]2O[C@H](COP3(=O)OCC[C@H](c4cc(F)ccc4F)O3)[C@@H](O)C2(F)F)c(=O)n1 (stereo partly drawn) [PA4013] | 7.23 ± 0.53 | – |
| Nc1ccn([C@@H]2O[C@H](COP3(=O)OCC[C@H](c4cccc(F)c4F)O3)[C@@H](O)C2(F)F)c(=O)n1 (stereo partly drawn) [PA4014] | 6.49 ± 0.19 | – |
| Nc1ccn([C@@H]2O[C@H](COP3(=O)OCC[C@H](c4ccc(F)c(F)c4)O3)[C@@H](O)C2(F)F)c(=O)n1 (stereo partly drawn) [PA4017] | 4.32 ± 0.76 | – |
| Nc1ccn([C@@H]2O[C@H](COP3(=O)OCC[C@H](c4cccc(Cl)c4Cl)O3)[C@@H](O)C2(F)F)c(=O)n1 (stereo partly drawn) [PA4018] | 7.62 ± 0.48 | – |
| Nc1ccn([C@@H]2O[C@H](COP3(=O)OCC[C@H](c4ccc(Cl)c(Cl)c4)O3)[C@@H](O)C2(F)F)c(=O)n1 (stereo partly drawn) [PA4021] | 5.25 ± 0.13 | – |

Source: patent publication US10913765B2, “Liver specific delivery-based gemcitabine prodrug nucleoside cyclic phosphate compound, and application thereof” (ZHEJIANG PALO ALTO PHARMACEUTICALS, INC., priority 2017, dated 2021)
